Measurements from patent publication EP4818159A1 (Kissei Pharmaceutical Co., Ltd., priority 2023, dated 2025).

Target: T1, human TSHR (Homo sapiens, UniProt P16473)
T1 construct: expressed in transfected cells
T1 sequence (P16473 21-764): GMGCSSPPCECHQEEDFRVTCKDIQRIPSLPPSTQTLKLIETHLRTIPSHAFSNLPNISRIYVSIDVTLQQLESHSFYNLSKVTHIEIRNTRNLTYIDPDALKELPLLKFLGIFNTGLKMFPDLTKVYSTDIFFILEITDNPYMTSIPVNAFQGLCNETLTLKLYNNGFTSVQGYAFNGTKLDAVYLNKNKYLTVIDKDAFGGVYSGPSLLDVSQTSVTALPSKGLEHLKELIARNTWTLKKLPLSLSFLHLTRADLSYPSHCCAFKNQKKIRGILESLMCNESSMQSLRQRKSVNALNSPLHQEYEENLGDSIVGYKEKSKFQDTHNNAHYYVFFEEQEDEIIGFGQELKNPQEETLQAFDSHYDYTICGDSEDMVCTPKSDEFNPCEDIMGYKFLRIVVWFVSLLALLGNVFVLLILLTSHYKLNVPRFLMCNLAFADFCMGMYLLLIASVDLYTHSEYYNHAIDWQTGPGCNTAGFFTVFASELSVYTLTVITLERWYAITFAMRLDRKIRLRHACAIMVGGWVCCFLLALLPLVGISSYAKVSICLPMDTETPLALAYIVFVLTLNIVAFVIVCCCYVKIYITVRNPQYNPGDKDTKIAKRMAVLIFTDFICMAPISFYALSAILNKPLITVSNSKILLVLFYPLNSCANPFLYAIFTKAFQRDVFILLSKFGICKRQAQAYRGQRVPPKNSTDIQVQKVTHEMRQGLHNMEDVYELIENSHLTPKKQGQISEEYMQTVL
Assay: Antagonist activity using TSH-induced cAMP production in human TSHR-stably expressing CHO cells
Format: cell-based
Details: human TSH final concentration of 50 ng/mL, cAMP production rate
Procedure: Measurement of antagonist activity using TSH-induced cAMP production in human TSHR-stably expressing CHO cells as an indicator
The gene sequence (reference number NM_000369.2) of human TSHR was inserted into the multiple cloning site of pcDNA3.1(+). The prepared plasmid vector was introduced into CHO cells using a lipofection method to establish human TSHR-stably expressing CHO cells. The obtained cells were seeded at 5 x 10^4 cells/well in a 96-well poly-D-lysine-coated plate, and cultured in an F12 culture medium containing 10% FBS, 400 µg/mL of G418, 50 U/mL of penicillin and 50 µg/mL of streptomycin under conditions of 37°C and 5% CO2 for 1 day. The culture medium was removed, and the cells were then washed twice with 100 µL of an assay buffer (Hanks' Balanced Salt Solution containing 20 mM HEPES and 1 mM IBMX) per well. 30 µL of an assay buffer containing a test compound was added to the well, and incubation was performed at room temperature for 15 minutes. Then, 30 µL of an assay buffer containing human TSH (a final concentration of 50 ng/mL, R&D Systems, Inc.) was added, and incubation was performed at 37°C for 1 hour. The supernatant was removed, a Lysis and Detection Buffer 2 (Cisbio) was added, and incubation was performed at room temperature for 1 hour to prepare a cell lysate. According to the instruction manual of a cAMP Gs HiRange kit (Cisbio), the cell lysate, d2-labeled cAMP and anti-cAMP Europium Cryptate labeled antibodies (Cisbio) were reacted in a 384-well white microplate. Then, a fluorescence intensity ratio (measurement wavelength 665 nm/620 nm) was measured using a multi-plate reader (PHERAstar FSX, BMG LABTECH Japan). The fluorescence intensity ratio of each sample was converted to a cAMP content using a standard curve. The cAMP content was converted as a percentage of the control value to calculate a cAMP production rate. The cAMP production rate was plotted against the test compound concentration using Prism (Graph Pad Software Inc.) to calculate the IC50 value. In the tables, IC50<3.0 µM was indicated as A, and 3.0 µM≤IC50<30 µM was indicated as B. If activity was observed but the IC50 value could not be calculated, it was indicated as C.
In the case of `CN1C(=O)[C@H](NC2=NC(=O)CN2)Cc2cccc(Oc3cc(F)ccc3Cl)c21` [Example 33, (R)-8-(2-chloro-5-fluorophenoxy)-1-methyl-3-((4-oxo-4,5-dihydro-1H-imidazole-2-yl)amino)-3,4-dihydroquinoline-2(1H)-one], the IC50 is reported as 3 to 30 µM. With `CN1C(=O)[C@H](Nc2ncc[nH]2)Cc2cccc(Oc3cc(F)ccc3Cl)c21` [Example 34, (R)-3-((1H-imidazole-2-yl)amino)-8-(2-chloro-5-fluorophenoxy)-1-methyl-3,4-dihydroquinoline-2(1H)-one] the IC50 was 3 to 30 µM. Compound `CN1C(=O)[C@H](NC(N)=O)Cc2cccc(CCc3ccccc3)c21` [Example 35, (R)-1-(1-methyl-2-oxo-8-phenethyl-1,2,3,4-tetrahydroquinoline-3-yl)urea] has an IC50 of 3 to 30 µM. In the case of `CN1C(=O)[C@H](NC(N)=O)Cc2csc(Cc3cc(F)ccc3Cl)c21` [Example 36, (R)-1-(7-(2-chloro-5-fluorobenzyl)-1-methyl-2-oxo-1,2,3,4-tetrahydrothieno[3,4-b]pyridine-3-yl)urea], the IC50 is reported as < 3 µM. For `CN1C(=O)[C@H](NC(N)=O)Cc2scc(Cc3cc(F)ccc3Cl)c21` [Example 37, (R)-1-(3-(2-chloro-5-fluorobenzyl)-4-methyl-5-oxo-4,5,6,7-tetrahydrothieno[3,2-b]pyridine-6-yl)urea], the IC50 was < 3 µM. For `Cc1sc2c(c1Cc1cc(F)ccc1Cl)N(C)C(=O)[C@H](NC(N)=O)C2` [Example 38, (R)-1-(3-(2-chloro-5-fluorobenzyl)-2,4-dimethyl-5-oxo-4,5,6,7-tetrahydrothieno[3,2-b]pyridin-6-yl)urea], the IC50 was < 3 µM. With `CN1C(=O)[C@H](NC(N)=O)Cc2sc(Br)c(Cc3cc(F)ccc3Cl)c21` [Example 39, (R)-1-(2-bromo-3-(2-chloro-5-fluorobenzyl)-4-methyl-5-oxo-4,5,6,7-tetrahydrothieno[3,2-b]pyridin-6-yl)urea] the IC50 was < 3 µM. For `CN1C(=O)[C@H](NC(N)=O)Cc2sc(C#N)c(Cc3cc(F)ccc3Cl)c21` [Example 40, (R)-1-(3-(2-chloro-5-fluorobenzyl)-2-cyano-4-methyl-5-oxo-4,5,6,7-tetrahydrothieno[3,2-b]pyridin-6-yl)urea], the IC50 was < 3 µM. In the case of `CN1C(=O)[C@H](NC(N)=O)Cc2sc(CO)c(Cc3cc(F)ccc3Cl)c21` [Example 41, (R)-1-(3-(2-chloro-5-fluorobenzyl)-2-(hydroxymethyl)-4-methyl-5-oxo-4,5,6,7-tetrahydrothieno[3,2-b]pyridin-6-yl)urea], the IC50 is reported as < 3 µM. In the case of `CN1C(=O)C(NC(N)=O)Cc2scc(C(=O)c3cc(F)ccc3Cl)c21` (stereo not shown) [Example 42, 1-(3-(2-chloro-5-fluorobenzoyl)-4-methyl-5-oxo-4,5,6,7-tetrahydrothieno[3,2-b]pyridin-6-yl) urea], the IC50 is reported as < 3 µM. In the case of `CC(c1cc(F)ccc1Cl)c1nsc2c1N(C)C(=O)[C@H](NC(N)=O)C2` (stereo partly drawn) [Example 43, 1-((6R)-3-(1-(2-chloro-5-fluorophenyl)ethyl)-4-methyl-5-oxo-4,5,6,7-tetrahydroisothiazolo[4 ,5-b]pyridine-6-yl)urea], the IC50 is reported as < 3 µM.

Tested on: not given
Assay: not given
Details: mice in which a TSH-releasing hormone (TRH) has been administered; cited from earlier work
In the case of `COc1ccc(C2Nc3ccccc3C(=O)N2Cc2ccco2)cc1COc1c(C)cc(NC(C)=O)cc1C` (stereo not shown) [NCGC00242364], the “blood T4 concentration lowering effect” value is given as “blood T4 concentration lowering effect”.

Same assay, conditions: mice in which a thyroid stimulating antibody M22 has been administered; cited from earlier work
In the case of `COc1ccc(C2Nc3ccccc3C(=O)N2Cc2ccco2)cc1COc1c(C)cc(NC(C)=O)cc1C` (stereo not shown) [NCGC00242364], the “blood T4 concentration lowering effect” value is listed as “blood T4 concentration lowering effect”.
